Test results from PubChem BioAssay (NCI).
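Following 48 hours of exposure in 96-well plates, responses at five concentrations were used to interpolate endpoints linearly. GI50: concentration for 50% inhibition of growth. TGI is the concentration that stops growth completely.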

What was measured:
Assay in all cases: NCI-60 cell line screen, 48 h
MOLT-4 leukemia = test system: MOLT-4 leukemia
RPMI-8226 leukemia = test system: RPMI-8226 leukemia
NCI-H226 lung = test system: NCI-H226 lung
SF-268 CNS = test system: SF-268 CNS
CAKI-1 renal = test system: CAKI-1 renal
MALME-3M melanoma = test system: MALME-3M melanoma
HCT-116 colon = test system: HCT-116 colon
SF-539 CNS = test system: SF-539 CNS
OVCAR-5 ovarian = test system: OVCAR-5 ovarian
UO-31 renal = test system: UO-31 renal

Structure (SMILES)	GI50 (MOLT-4 leukemia)	TGI (MOLT-4 leukemia)	GI50 (RPMI-8226 leukemia)	TGI (RPMI-8226 leukemia)	GI50 (NCI-H226 lung)	TGI (NCI-H226 lung)	GI50 (SF-268 CNS)	TGI (SF-268 CNS)	GI50 (CAKI-1 renal)	TGI (CAKI-1 renal)	GI50 (MALME-3M melanoma)	TGI (MALME-3M melanoma)	GI50 (HCT-116 colon)	TGI (HCT-116 colon)	GI50 (SF-539 CNS)	TGI (SF-539 CNS)	GI50 (OVCAR-5 ovarian)	TGI (OVCAR-5 ovarian)	GI50 (UO-31 renal)	TGI (UO-31 renal)
CC(=O)OC1CCC2(C)C(=CCC3C4CC(CN5CC5)C(=O)C4(C)CCC32)C1 (stereo not drawn)	3.1 µM	8.3 µM	1 µM	6.28 µM	14.8 µM	40.2 µM	13.9 µM	28.2 µM	2.21 µM	6.02 µM	2.21 µM	5.56 µM	3.44 µM	10.1 µM	13.5 µM	26.9 µM	17.3 µM	33.2 µM	2.99 µM	10.4 µM
Brc1ccc2c(c1)-c1ccccc1C1=NCCN12	0.419 µM	3.73 µM	1.71 µM	4.95 µM			1.77 µM	9.44 µM	1.52 µM	7.92 µM	1.35 µM	2.97 µM	0.403 µM	10.2 µM	1.63 µM	4.38 µM	1.64 µM	10.4 µM	0.585 µM	3.81 µM
COc1ccc(S(=O)(=O)NCCCNc2nccc(-c3c(-c4ccc(F)cc4)nc4sccn34)n2)cc1	5.7 µM	> 100 µM	6.25 µM	58.2 µM	6.06 µM	> 100 µM	7.85 µM	> 100 µM	6.72 µM	> 100 µM	5.78 µM	> 100 µM	4.85 µM	> 100 µM	17.1 µM	> 100 µM	32.7 µM	> 100 µM	3.83 µM	> 100 µM
Cc1[nH]n(C(=O)c2ccc(Cl)cc2)c(=O)c1/C=C1\C(O)=CC(=O)c2ccccc21		> 100 µM		> 100 µM				> 100 µM		> 100 µM		> 100 µM		> 100 µM		> 100 µM		> 100 µM		> 100 µM
Cc1nc(-c2cccnc2)sc1C(=O)/C=C/c1ccc(Cl)cc1Cl		> 100 µM		> 100 µM		> 100 µM		> 100 µM		> 100 µM		> 100 µM				> 100 µM		> 100 µM		> 100 µM
CC(=O)OCC1OC(OC(C)=O)C(NC#N)C(OC(C)=O)C1OC(C)=O (stereo not drawn)		> 100 µM		> 100 µM				> 100 µM		> 100 µM		> 100 µM		> 100 µM		> 100 µM		> 100 µM		> 100 µM
COC(=O)C1=C(C)N(NC(=O)Nc2ccccc2)C2(N)N(NC(=O)Nc3ccccc3)C(C)=C(C(=O)OC)C12C(=O)OC (stereo not drawn)		71.3 µM		78.5 µM		> 100 µM		> 100 µM		82.9 µM		> 100 µM		> 100 µM				> 100 µM		> 100 µM
CCCCCCCCCCCCCCCC(=O)NCC(OCC)OCC						> 100 µM		> 100 µM				> 100 µM		> 100 µM		> 100 µM		> 100 µM		> 100 µM
CC(C)=NO.CC(C)=NO.CC(C)=NO.CC(C)=NO.[Ti]	> 100 µM	> 100 µM	> 100 µM	> 100 µM	> 100 µM	> 100 µM	> 100 µM	> 100 µM	> 100 µM	> 100 µM	> 100 µM	> 100 µM			> 100 µM	> 100 µM	> 100 µM	> 100 µM	> 100 µM	> 100 µM
COc1cc([C@H]2c3cc(O)c(OC)cc3C[C@]3(O)[C@@H]2CO[C@@H]3O)ccc1O		> 100 µM		> 100 µM		> 100 µM		> 100 µM		> 100 µM				> 100 µM		> 100 µM		> 100 µM		> 100 µM
CCCCc1c2c(nc3c1CC/C(=C\c1ccccc1)C3=O)CCCC2		11.7 µM		7.04 µM				12.6 µM				20.2 µM		16.1 µM		4.71 µM				19.1 µM
O=C(/C=C/N1CCN(c2cccc(Cl)c2)CC1)c1ccc(Cl)cc1	33.5 µM	> 100 µM	18.3 µM	50.7 µM			19.8 µM	53.2 µM	28.8 µM	71.1 µM	4.89 µM	26.4 µM	27.1 µM	70.4 µM	22.8 µM	47.7 µM	49.7 µM	> 100 µM	31.5 µM	> 100 µM
C=CCCC1(CCP(=O)(c2ccccc2)c2ccccc2)OCCO1		> 100 µM		> 100 µM				> 100 µM				> 100 µM		> 100 µM		> 100 µM		> 100 µM		> 100 µM
CCCNc1ncnc2c1cnn2C		> 100 µM		> 100 µM		> 100 µM		> 100 µM		> 100 µM		> 100 µM		> 100 µM		> 100 µM		> 100 µM		
Cc1cc2c(=O)cc(-c3ccncc3)oc2c(C(=O)O)c1C		> 100 µM		> 100 µM		> 100 µM		> 100 µM				> 100 µM		> 100 µM		> 100 µM		> 100 µM		> 100 µM
NC1CC(n2ccc(=O)[nH]c2=O)OC1C(O)CO (stereo not drawn)		> 100 µM		> 100 µM		> 100 µM		> 100 µM				> 100 µM		> 100 µM		> 100 µM		> 100 µM		> 100 µM
CC(C)C12CCC3(CCC4C(C)(C(=O)O)CCCC4(C)C3C1)C(CN)C2 (stereo not drawn)				42 µM		> 100 µM		> 100 µM		> 100 µM		> 100 µM		34.2 µM		78.9 µM		90.4 µM		> 100 µM
O=C(Nc1ccccc1)Oc1ccccc1C1CCCCC1		> 100 µM		52 µM		37.6 µM		> 100 µM				57.1 µM		90.2 µM		> 100 µM		> 100 µM		74.3 µM
CN(C)c1ccc(/C=C2\Cc3ccccc3C2=O)cc1Br		93.5 µM		84.3 µM				> 100 µM		> 100 µM		> 100 µM						> 100 µM		> 100 µM
